Data on 15 compounds can be found in the NIST ThermoML archive (doi:10.1016/j.jct.2012.12.025).

By mass density is commonly meant the mass of a sample divided by its volume.

The conditions of data set [1]: 298.15 K; 101.33 kPa; Liquid; Pycnometric method.
Data set [2] in a line: wn = mass fraction of the nth substance listed. The settings on record: 298.15 K, 101 kPa, Liquid, Pycnometric method.
A short description of data set [3]: cn = amount concentration of the nth substance listed, in mol/dm3. Conditions: 298.15 K, 101 kPa, Liquid, Pycnometric method.

Structures are written as SMILES. Numbers after ± are expanded uncertainties.

For the compound `CCOC(=O)OCC` [diethyl carbonate], the mass density in data set [1] is on record as 970 ± 100 kg/m3.

Take `COC(=O)OC` [dimethyl carbonate]: in data set [1], the mass density is on record as 1070 ± 100 kg/m3. In the case of `CCOC(=O)OC` [ethyl methyl carbonate], in data set [1], the mass density was 1010 ± 100 kg/m3. `CCOC(=O)OC` [ethyl methyl carbonate] + O=C1OCCO1: the mass density in data set [2] (w2 = 0.5) stood at 1190 ± 100 kg/m3. Consider `CCOC(=O)OC` [ethyl methyl carbonate] + O=S(=O)([N-]S(=O)(=O)C(F)(F)F)C(F)(F)F.[Li+], for which the mass density in data set [3] (c2 = 1) is 1130 ± 100 kg/m3. Regarding `O=C1OCCO1` [ethylene carbonate], in data set [1], the mass density is on record as 1350 ± 100 kg/m3.

As to `O=C1OCCO1` [ethylene carbonate] + CCOC(=O)OCC, the mass density in data set [2] (w1 = 0.5) is on record as 1090 ± 100 kg/m3.

As for `O=C1OCCO1` [ethylene carbonate] + COC(=O)OC, the mass density in data set [2] (w1 = 0.5) is listed as 1230 ± 100 kg/m3. Take `O=S(=O)([N-]S(=O)(=O)C(F)(F)F)C(F)(F)F.[Li+]` [lithium bis((trifluoromethyl)sulfonyl)amide] + CCOC(=O)OCC: the mass density in data set [3] (c1 = 1) is 1100 ± 100 kg/m3. As to `O=S(=O)([N-]S(=O)(=O)C(F)(F)F)C(F)(F)F.[Li+]` [lithium bis((trifluoromethyl)sulfonyl)amide] + COC(=O)OC, the mass density in data set [3] (c1 = 1) came out at 1160 ± 100 kg/m3.

For the compound `O=S(=O)([N-]S(=O)(=O)C(F)(F)F)C(F)(F)F.[Li+]` [lithium bis((trifluoromethyl)sulfonyl)amide] + O=C1OCCO1, in data set [3] (c1 = 1), the mass density is given as 1420 ± 100 kg/m3. Consider `F[P-](F)(F)(F)(F)F.[Li+]` [lithium hexafluorophosphate] + CCOC(=O)OC, for which the mass density in data set [3] (c1 = 1) is recorded as 1090 ± 100 kg/m3. With `F[P-](F)(F)(F)(F)F.[Li+]` [lithium hexafluorophosphate] + CCOC(=O)OCC, the mass density in data set [3] (c1 = 1) is 1050 ± 100 kg/m3. On the same count and under the same terms, next, `F[P-](F)(F)(F)(F)F.[Li+]` [lithium hexafluorophosphate] + COC(=O)OC: 1140 ± 100 kg/m3. In the case of `F[P-](F)(F)(F)(F)F.[Li+]` [lithium hexafluorophosphate] + O=C1OCCO1, in data set [3] (c1 = 1), the mass density was found to be 1400 ± 100 kg/m3.
